# According to patent US11339171B2, “MDM2 inhibitors” (Gan & Lee Pharmaceuticals, priority 2017, dated 2022):
# Read-outs that look alike come from different tables or passages of the source.
# Columns and labels:
# [1] = test system: human osteosarcoma cell line SJSA-1; experiment: Inhibition of proliferation of human osteosarcoma cell line SJSA-1 (DAPI staining, In Cell Analyzer)
# MDM2 = molecular target: T1, MDM2 (Homo sapiens, UniProt Q00987); experiment: Inhibition test of MDM2-P53 (GST-MDM2, Biotin-P53, Anti-GST-Tb, SA-XL665); type: binding
# T1 construct: made in house
# How it was run: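 Binding was measured by TR-FRET with GST-MDM2 at 4 nM final in PBS with 0.1% BSA, 5 mM DTT and 1 mM AEBSF. Compounds were tested as twelve-point 5-fold dilutions and incubated with the detection mix for 90 min at 25 °C with shaking before plate-reader reading and curve fitting.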
# [2] = Homo sapiens, SJSA-1, 72 h, read-out: IC50 (nM), inhibitory activity on proliferation of human osteosarcoma cell line SJSA-1, SJSA-1, incubated 72 h
# T1 sequence (Q00987 whole entry): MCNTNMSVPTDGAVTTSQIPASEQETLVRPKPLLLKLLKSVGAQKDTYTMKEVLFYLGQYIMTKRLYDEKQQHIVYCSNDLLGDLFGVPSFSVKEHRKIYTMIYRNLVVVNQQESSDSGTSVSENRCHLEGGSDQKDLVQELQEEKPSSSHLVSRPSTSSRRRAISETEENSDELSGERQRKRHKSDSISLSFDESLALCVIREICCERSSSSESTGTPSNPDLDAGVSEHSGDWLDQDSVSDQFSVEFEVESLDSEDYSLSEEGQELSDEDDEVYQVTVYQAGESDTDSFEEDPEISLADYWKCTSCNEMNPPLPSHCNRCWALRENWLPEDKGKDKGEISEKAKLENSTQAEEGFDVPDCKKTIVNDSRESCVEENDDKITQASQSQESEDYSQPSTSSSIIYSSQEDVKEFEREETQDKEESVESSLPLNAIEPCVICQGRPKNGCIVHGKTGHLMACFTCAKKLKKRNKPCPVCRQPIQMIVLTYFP
SMILES,"IC50 [1, 2]",IC50 (MDM2),"IC50 ([1]; read-out: IC50 (nM), inhibitory activity on proliferation of human osteosarcoma cell line SJSA-1, SJSA-1, incubated 72 h)"
"CCc1ccc(Cl)cc1N1C(=O)c2nc(-c3cnc(OC)nc3OC)n(C(C)C)c2[C@]12C(=O)Nc1cc(Cl)ccc12 [Example R-15, (R)-6-chloro-5′-(5-chloro-2-ethylphenyl)-2′-(2,4-dimethoxypyrimidin-5-yl)-3′-isopropyl-3′H-spiro[dihydroindole-3,4′-pyrrolo[3,4-d]imidazole]-2,6′(5′H)-dione]",840 nM,107 nM,
"COc1ncc(-c2nc3c(n2C(C)C)[C@]2(C(=O)Nc4cc(Cl)ccc42)N(c2cc(Cl)cn(C)c2=O)C3=O)c(OC)n1 [Example R-16, (R)-6-chloro-5′-(5-chloro-1-methyl-2-oxo-1,2-dihydropyridin-3-yl)-2′-(2,4-dimethoxypyrimidin-5-yl)-3′-isopropyl-3′H-spiro[dihydroindole-3,4′-pyrrolo[3,4-d]imidazole]-2,6′(5′H)-dione]",20100 nM,570 nM,
"COc1ncc(-c2nc3c(n2C(C)C)[C@]2(C(=O)Nc4cc(Cl)ccc42)N(c2cc(Cl)ccc2OC)C3=O)c(OC)n1 [Example R-17, (R)-6-chloro-5′-(5-chloro-2-methoxyphenyl)-2′-(2,4-dimethoxypyrimidin-5-yl)-3′-isopropyl-3′H-spiro[dihydroindole-3,4′-pyrrolo[3,4-d]imidazole]-2,6′(5′H)-dione]",1310 nM,49.4 nM,2440 nM
"COc1ccncc1-c1nc2c(n1C(C)C)[C@]1(C(=O)Nc3cc(Cl)ccc31)N(c1cc(Cl)ccc1C)C2=O [Example R-18, (R)-6-chloro-5′-(5-chloro-2-methylphenyl)-3′-isopropyl-2′-(4-methoxypyridin-3-yl)-3′H-spiro[dihydroindole-3,4′-pyrrolo[3,4-d]imidazole]-2,6′(5′H)-dione]",1620 nM,158 nM,
"COc1ncc(-c2nc3c(n2C(C)C)[C@]2(C(=O)Nc4cc(Cl)ccc42)N(c2ccc(C)c(Cl)c2)C3=O)c(OC)n1 [Example R-20, (R)-6-chloro-5′-(3-chloro-4-methylphenyl)-2′-(2,4-dimethoxypyrimidin-5-yl)-3′-isopropyl-3′H-spiro[dihydroindole-3,4′-pyrrolo[3,4-d]imidazole]-2,6′(5′H)-dione]",4010 nM,256 nM,
"CNC(=O)c1ccc(OC)c(-c2nc3c(n2C(C)C)[C@]2(C(=O)Nc4cc(Cl)ccc42)N(c2cc(Cl)ccc2C)C3=O)c1 [Example R-21, (R)-3-(6-chloro-5′-(5-chloro-2-methylphenyl)-3′-isopropyl-2,6′-dioxo-5′,6′-dihydro-3′H-spiro[dihydroindole-3,4′-pyrrolo[3,4-d]imidazole]-2′-yl)-4-methoxy-N-methylbenzamide]",5230 nM,223 nM,
"COc1ccc(C(=O)N(C)C)cc1-c1nc2c(n1C(C)C)[C@]1(C(=O)Nc3cc(Cl)ccc31)N(c1cc(Cl)ccc1C)C2=O [Example R-22, (R)-3-(6-chloro-5′-(5-chloro-2-methylphenyl)-3′-isopropyl-2,6′-dioxo-5′,6′-dihydro-3′H-spiro[dihydroindole-3,4′-pyrrolo[3,4-d]imidazole]-2′-yl)-4-methoxy-N,N-dimethylbenzamide]",6950 nM,627 nM,
"COc1cc(N(C)C)ccc1-c1nc2c(n1C(C)C)[C@]1(C(=O)Nc3cc(Cl)ccc31)N(c1cc(Cl)ccc1C)C2=O [Example R-23, (R)-6-chloro-5′-(5-chloro-2-methylphenyl)-2′-(4-(dimethylamino)-2-methoxyphenyl)-3′-isopropyl-3′H-spiro[dihydroindole-3,4′-pyrrolo[3,4-d]imidazole]-2,6′(5′H)-dione]",354 nM,175 nM,
"COc1cc(C)ccc1-c1nc2c(n1C(C)C)[C@]1(C(=O)Nc3cc(Cl)ccc31)N(c1cc(Cl)ccc1C)C2=O [Example R-24, (R)-6-chloro-5′-(5-chloro-2-methylphenyl)-3′-isopropyl-2′-(2-methoxy-4-methylphenyl)-3′H-spiro[dihydroindole-3,4′-pyrrolo[3,4-d]imidazole]-2,6′(5′H)-dione]",872 nM,392 nM,
